The values that follow come from PMC5702381 (Advances in Therapy, 2017).

Each structure is given as a SMILES string. Like-named read-outs stand apart in the source and are kept apart here.

As usually defined, the CL/F is the apparent clearance, not corrected for the fraction that reaches the circulation. The term Cmax denotes the maximum level reached in the sampled fluid or tissue. Usually half-life stands for the time in which the quantity being followed falls by half. Lower therefore signals fast loss.

The nature of data set [1]: Safety assessments. In kind it is in vivo, human.
The format of data set [2] is in vivo, human. As to conditions: for CL/F: arithmetic mean ± SD.
Data set [3] is classed as in vivo, human. As to conditions: for CL/F: arithmetic mean ± SD. The source holds these as a separate data set.
For data set [4] the following is noted: healthy volunteers; cited from earlier work.
Data set [5] relates to CYP2C19. To be noted: cited from earlier work.
The conditions of data set [6]: healthy volunteers; cited from earlier work. This is another data set of the same source.
For data set [7], the system named is CYP2C9. To be noted: in vitro; ref unpublished data; cited from earlier work.
The format of data set [8] is in vivo, human. As to conditions: for CL/F: arithmetic mean ± SD. The source holds these as a separate data set.
In data set [9] the test system is CYP2B6. As to conditions: cited from earlier work.
Data set [10] deals with CYP3A4. As to conditions: in vitro; ref unpublished data; cited from earlier work.
Data set [11] deals with CYP2C19. To be noted: in vitro; ref unpublished data; cited from earlier work.
The conditions of data set [12]: for AUCinf / C max: geometric mean ± SD; for CL/F: arithmetic mean ± SD; for t max: median (range).
Data set [13] deals with prothrombin time (PT). Kind of data set: Study 15L-CL-018: warfarin pharmacodynamics. The data set is classed as in vivo, human. To be noted: for AUCPT;0–168 h: geometric mean ± SD.
Where [14] appears, read: with ketoconazole coadministration vs amenamevir alone.
Where [15] appears, read: in the presence of rifampicin vs amenamevir alone.
Where [16] appears, read: warfarin 25 mg + amenamevir 200 mg once daily, n = 18.
Where [17] appears, read: warfarin 25 mg + amenamevir 400 mg once daily, n = 15.
Where [18] appears, read: warfarin 25 mg alone, amenamevir 400 mg group, n = 17.
Setting [19] is: warfarin + amenamevir 200 mg once daily.
The mark [20] stands for this setting: warfarin + amenamevir 400 mg once daily.
Setting [21] is: warfarin alone, amenamevir 200 mg group.
Setting [22] is: warfarin alone, amenamevir 400 mg group.

Consider `CC(=O)N1CCN(c2ccc(OCC3COC(Cn4ccnc4)(c4ccc(Cl)cc4Cl)O3)cc2)CC1` (centres unmarked) [ketoconazole], for which the “participants reporting headache (TEAE)” value in data set [1] (study 15L-CL-008, during the treatment named, n = 22) was 18.2%.
For the compound `Cc1ncc2n1-c1ccc(Cl)cc1C(c1ccccc1F)=NC2` [Midazolam, midazolam], the “pharmacokinetic interaction with amenamevir (90% CI of LS GMR vs 0.80–1.25)” value was “significant interaction” in [2] (amenamevir 400 mg once daily, based on C max and AUCinf); “significant interaction” in data set [2] (amenamevir 200-mg dose, based on AUCinf). The t max in [2] (human, plasma, oral, 200 mg) is 1.5 h; in data set [2] (human, plasma, oral, 400 mg), 1.5 h; in data set [2] (midazolam + amenamevir 400 mg once daily, median (range)) it was 1.0 (0.5–4.0) h. Moreover, the CL/F is listed as 109.0 ± 43.4 L/h in data set [2] (midazolam + amenamevir 200 mg once daily); 143.8 ± 68.0 L/h in data set [2] (midazolam + amenamevir 400 mg once daily); 80.1 ± 37.0 L/h in data set [2] (midazolam alone, amenamevir 200 mg group); 78.2 ± 39.2 L/h in data set [2] (midazolam alone, amenamevir 400 mg group).
As to `Cc1cccc(C)c1N(CC(=O)Nc1ccc(-c2ncon2)cc1)C(=O)C1CCS(=O)(=O)CC1` [Amenamevir, amenamevir], the CL/F in data set [3] (amenamevir 400 mg + ketoconazole 400 mg once daily) is listed as 8.0 ± 2.1 L/h; in data set [3] (amenamevir 400 mg alone) it was 20.8 ± 5.9 L/h; in data set [8] (amenamevir 400 mg + rifampicin 600 mg once daily) it was 133.5 ± 40.0 L/h; in [8] (amenamevir 400 mg alone), 22.1 ± 5.9 L/h. In addition, in data set [3] (based on AUCinf), the “pharmacokinetic interaction with ketoconazole (90% CI of LS GMR vs 0.80–1.25)” value is given as “significant interaction”. For the same compound, the highest concentration (Cmax) was found to be 1450 ± 329 ng/mL in data set [3] (human, plasma, oral, 400 mg) and 1320 ± 282 ng/mL in data set [8] (human, plasma, oral, 400 mg). For the same compound, the half-life was 8.1 ± 1.9 h in data set [3] (human, plasma, oral, 400 mg) and 8 ± 1.2 h in [8] (human, plasma, oral, 400 mg). Moreover, the t max in [3] (human, plasma, oral, 400 mg) stood at 4 h; in data set [8] (human, plasma, oral, 400 mg), 3 h. Besides, the “decrease of CL/F” value in data set [3] (setting [14]) is 2.6 fold. Also, the “increase of mean t ½” value in data set [3] (setting [14]) is 2.2 fold. The “urinary excretion as unchanged drug” value in data set [4] is listed as “approximately 10%”. The “correlation of metabolism with marker-enzyme activity” value in data set [5] and in [9] was “significantly correlated” in each case. For the same compound, the “change of AUCinf when administered with food” value in data set [6] is “almost doubling”. Moreover, the figures for the “induction of enzyme activity” value in [7], in data set [10] and in data set [11] were “potentially induces”, “potentially induces” and “weak potential for inducing”, respectively. The “deaths, serious adverse events” value in data set [1] (across all four studies) is given as “no deaths or serious adverse events reported”. Further, in [1] (across all four studies, healthy male adults), the safety and tolerability result is “safe and generally well tolerated”. Also, the “participants reporting TEAEs” value stood at 9.1% in [1] (study 15L-CL-010, group that received the 200-mg dose of amenamevir (with single doses of midazolam 7.5 mg)) and 9.1% in [1] (study 15L-CL-010, group that received the 400-mg dose of amenamevir (with single doses of midazolam 7.5 mg)). Besides, the “TEAEs considered to be related to the study drug” value in [1] (study 15L-CL-018, 200-mg amenamevir dose) is “myalgia”; in [1] (study 15L-CL-018, 400-mg amenamevir dose) it was “back pain, abdominal pain, and dyspepsia”. For the same compound, the “pharmacokinetic interaction with rifampicin (90% CI of LS GMR vs 0.80–1.25)” value in data set [8] (based on C max and AUCinf) was “significant interaction”. In data set [8] (setting [15]), the “decrease of mean t ½” value came out at 2.7 fold. Further, the “increase of mean CL/F” value in data set [8] (setting [15]) is reported as “sixfold”.
Take `CC(=O)C[C@H](c1ccccc1)c1c(O)c2ccccc2oc1=O` [(R)-Warfarin, (R)-warfarin]: the results for the AUCinf in data set [12] (setting [16]), in data set [12] (setting [17]) and in [12] (setting [18]) were 67,092 ± 18,315 ng h/mL, 68,723 ± 12,736 ng h/mL and 75,652 ± 18,160 ng h/mL, respectively. For the same compound, the apparent clearance (CL/F) in data set [12] (setting [19]) turned out to be 0.18 ± 0.04 L/h; in data set [12] (setting [20]), 0.17 ± 0.03 L/h; in data set [12] (setting [21]), 0.17 ± 0.04 L/h; in data set [12] (setting [22]), 0.16 ± 0.04 L/h. Moreover, the C max in data set [12] (setting [19]) turned out to be 1240 ± 134 ng/mL; in data set [12] (setting [20]), 1262 ± 232 ng/mL; in [12] (setting [21]), 1197 ± 133 ng/mL; in data set [12] (setting [22]), 1187 ± 149 ng/mL. The t max is on record as 4.0 (1.0–12.0) h in [12] (setting [19]), 4.0 (2.0–12.0) h in [12] (setting [20]), 4.0 (2.0–4.0) h in data set [12] (setting [21]) and 4.0 (2.0–12.0) h in data set [12] (setting [22]).
With `CC(=O)CC(c1ccccc1)c1c(O)c2ccccc2oc1=O` (centres unmarked) [Warfarin, warfarin], in data set [1] (study 15L-CL-018, warfarin 25 mg alone), the “TEAEs considered to be related to the study drug” value was “nausea and dyspepsia”. The “AUCPT;0–168 h” value in [13] (warfarin + amenamevir 200 mg once daily, n = 18) is 2411 ± 199 s h; in data set [13] (warfarin + amenamevir 400 mg once daily, n = 15), 2425 ± 163 s h; in data set [13] (warfarin alone, amenamevir 400 mg group, n = 17) it was 2556 ± 254 s h. The tPTmax in data set [13] (warfarin alone, amenamevir 400 mg group, arithmetic mean ± SD) is on record as 39.5 ± 14.6 h.
As to `CC(=O)C[C@@H](c1ccccc1)c1c(O)c2ccccc2oc1=O` [(S)-Warfarin, (S)-warfarin], the AUCinf in data set [12] (setting [16]) was 46,725 ± 18,437 ng h/mL; in data set [12] (setting [17]), 45,032 ± 23,503 ng h/mL; in [12] (setting [18]), 50,329 ± 24,609 ng h/mL. For the same compound, the CL/F is reported as 0.26 ± 0.07 L/h in [12] (setting [19]), 0.27 ± 0.08 L/h in [12] (setting [20]), 0.25 ± 0.07 L/h in data set [12] (setting [21]) and 0.25 ± 0.08 L/h in [12] (setting [22]). Moreover, the C max in data set [12] (setting [19]) is on record as 1217 ± 134 ng/mL; in data set [12] (setting [20]), 1251 ± 237 ng/mL; in data set [12] (setting [21]) it was 1194 ± 132 ng/mL; in data set [12] (setting [22]), 1168 ± 162 ng/mL. Moreover, the t max in data set [12] (setting [19]) was 4.0 (1.0–4.0) h; in data set [12] (setting [20]), 2.0 (1.0–4.0) h; in data set [12] (setting [21]), 4.0 (2.0–4.0) h; in data set [12] (setting [22]) it was 4.0 (1.0–4.0) h.
